Experimental findings from patent publication US10829506B2, “Amino- or ammonium-containing sulfonic acid, phosphonic acid and carboxylic acid derivatives and their medical use” (GRI Bio, Inc., priority 2011, dated 2020) are described below.

One data set deals with RBL-2H3 cells. Kind of data set: Maximum tolerated concentration (cytotoxicity by lactate dehydrogenase release). The data set is classed as cell-based, rat. The text has this:
A commercially available cytotoxicity test was used (Promega Cytotox-One cat. #67891).
The safety index (SI) of a test compound Is the ratio between the maximum tolerated concentration and the 1C50 and is used as a measure of the relative safety of the test compound.

The next data set has as its system phospho-Akt Ser473. The experiment in a line: Inhibition of Akt phosphorylation on Ser473 in IgE sensitized, antigen stimulated RBL-2H3 cells. The data set is classed as cell-based, rat. To be noted: normalized to total Akt, IgE and antigen for 15 min. The text has this:
The mast cell degranulation assay using the RBL-2H3 cell line (see Example 27) was also used to determine the status of the PI3K/Akt axis. Activation of PI3K leads to production of PIP3 on the cytosolic side of the lipid bilayer. Akt is recruited to the PIP3 domain and subsequently activated by phosphorylation on residues Ser473 and Thr308. (Franke et al., Cell 81:727-736, (1995)). Once recruited to the membrane, it is phosphorylated and activated by other kinases (Hemmings, Science 275:628-630 (1997); Hemmings. Science 276:534 (1997); Downward, Science 279:673-674 (1998); Alessi et al., EMBO J. 15:6541-6551 (1996)). Western blotting of the phosphorylated Ser473 residue on Akt (phospho-Akt Ser473) is widely used to assess the level of activation of the PI3K/Akt axis.
All buffers and solutions used for the phosphor-Akt Ser473 assay were from Meso Scale Discovery. Tris Lysis Buffer consisted of 150 mM NaCl, 20 mM Tris, pH 7.5, 1 mM EDTA, 1 mM EGTA and 1% Triton-X-100. Complete Tris Lysis Buffer was prepared prior to use by addition of protease inhibitor, phosphatase inhibitors and PMSF. The 10x Tris Wash Buffer consisted of 500 mM Tris, pH 7.5, 1.5 M NaCl and 0.2% Tween-20. Blocker A was made up of bovine serum albumin in Tris Wash Buffer. Read Buffer T was used according to manufacturer's instructions. The Whole Cell Lysate Kits used were phospho-Akt Ser473 (K11100D. Lot K0011749) and total ERK½ (K11107D, Lot K0011698) as a loading control.
Protein assay: protein concentration was determined using the BCA (bicinchoninic acid) Protein Assay kit according to the manufacturer's instructions, Briefly, duplicate 10 μl samples of bovine serum albumin (BSA) standards, blank and lysates were incubated in a 96-well plate with 0.2 ml working reagent for 30 min at 37° C. Plates cooled to room temperature for 5 min and absorbance at 562 nm measured in a multi-mode plate reader. Protein concentrations were calculated using FlexStation 3 software (SoftMax Pro version 5.3). Protein concentration of lysates was determined from a standard curve (BSA) using a linear curve fit.
Phosphoprotein assay: protein phosphorylation was determined using the MULTI-SPOT® Assay System (Meso Scale Discovery), providing simultaneous detection of phosphorylated and total proteins. Briefly, capture antibodies against phosphorylated and total protein are patterned on distinct spots in the same well of 96-well plates. Sandwich immunoassay and electrochemiluminescence detection technology are combined to measure intensity of the emitted light from phosphorylated and total protein spots. For analysis of phosphor-Akt Ser473 was performed according to the manufacturer's instructions. The optimal amount of protein was determined at 5 μg lysate per well for ERK½ and 10 μg/well for phospho-Akt Ser473. Plates were blocked with 25 μl/well Blocker A for 1 h at room temperature with gentle agitation. During this time, the lysates were thawed and diluted to the desired protein concentration in complete Tris Lysis Buffer. Plates were washed four times in Tris Wash Buffer and 25 μl lysate per well added. Plates were incubated for 1-3 h at room temperature with agitation according to the manufacturer's recommendations. Plates were washed four times with Tris Wash Buffer, followed by addition of 25 μl/well of the respective detection antibody and incubation for 1 h at room temperature, with agitation. After a final four washes with Tris Wash Buffer 150 μl/well, Read Buffer T was added, and plates read on a SECTOR Imager 6000 plate reader.
The mean background signal from each plate was subtracted from averaged raw data. The amount of total protein phosphorylaled was expressed as % phosphoprotein according to the manufacturer's (Meso Scale Discovery) Instructions.
Levels of phospho-Akt Ser473 were determined in IgE sensitized and antigen stimulated cells after treatment without (positive control) or with 1, 5 and 25 μM test compound and normalized to levels of total Akt.

The nature of data set [1]: Body weight and toxic side-effects in the DTH study. The data set is classed as in vivo, mice. To be noted: oral. The protocol: Three hours after the last dose, the antigen challenge was performed on the ears as described above. Dexamethasone was given at 1 mg/kg orally by gavage 3 h before sensitization and once daily with the final dose given 3 h prior to antigen challenge (a total of 7 administrations). All administrations were given in a volume of 10 mL/kg.
Such high dosing (overdose) is, however, not suitable for treatment of humans due to severe side effects of the corticosteroid and was only used to validate the responsiveness of the model.

A further data set deals with BALB/c-mice. The experiment in a line: Local lymph node weight and cell count after TDI challenge. Type of data set: in vivo. The procedure:
Directly after sacrifice, the ear draining lymph node (Ln. auricufaris) was prepared and excised. Organ weight was determined by means of an analytical balance (Kern, Balingen, Germany). Single cell suspensions were prepared by means of a glass potter (VWR, Darmstadt, Germany) and cells were counted with a hemocytometer (Neubauer, V W R, Germany).
One of the most undesirable side-effects of corticosteroid administration is immunosuppression, which leads to the inability to effectively address parasitic infection, wound healing and tumor growth. In the current study, the local lymph node reaction after TDI challenge (lymph node weight and cell number) was determined to assess the response of immune organs.

Regarding `CCCCCCCCCCCCCC[N+](C)(C)CCCS(=O)(=O)[O-]` [Compound 1a, 3-(N,N-Dimethylmyristylammonio)-Propanesulfonate], the “MTC (maximum tolerated concentration)” value with RBL-2H3 cells (highest concentration not causing cytotoxicity, LDH release) was determined as 100 µM. The “SI (safety index, ratio MTC/IC50)” value in the data set with RBL-2H3 cells (ratio between maximum tolerated concentration and IC50) came to 31.3. Besides, the “Level of phospho-Akt Ser473” value is reported as 103.1 ± 17.4 % positive control in the data set with phospho-Akt Ser473 (1 μM), 57.0 ± 15.2 % positive control with phospho-Akt Ser473 (5 μM) and 13.2 ± 4.2 % positive control with phospho-Akt Ser473 (25 μM). The “Toxic side-effects during the course of the study” value in data set [1] was “no toxic side-effects”. Also, the “Local lymph node reaction (lymph node weight and cell number)” value with BALB/c-mice (systemic treatment at 100 mg/kg) and with BALB/c-mice (topical treatment at 2% or 6%) was “did not have any impact” throughout.
